Changes are numbered by the printed parent chain. pIC50: −log10 of the molar value.
What was measured:
IDH2 R140Q = molecular target: T1, IDH2 R140Q (Homo sapiens, UniProt P48735, R140Q); test: IDH2 R140Q enzymatic assay (cofactor depletion, similar format); assay type: biochemical; conditions: read-out: Enz R140Q
T1 sequence (P48735 40-452 R140Q): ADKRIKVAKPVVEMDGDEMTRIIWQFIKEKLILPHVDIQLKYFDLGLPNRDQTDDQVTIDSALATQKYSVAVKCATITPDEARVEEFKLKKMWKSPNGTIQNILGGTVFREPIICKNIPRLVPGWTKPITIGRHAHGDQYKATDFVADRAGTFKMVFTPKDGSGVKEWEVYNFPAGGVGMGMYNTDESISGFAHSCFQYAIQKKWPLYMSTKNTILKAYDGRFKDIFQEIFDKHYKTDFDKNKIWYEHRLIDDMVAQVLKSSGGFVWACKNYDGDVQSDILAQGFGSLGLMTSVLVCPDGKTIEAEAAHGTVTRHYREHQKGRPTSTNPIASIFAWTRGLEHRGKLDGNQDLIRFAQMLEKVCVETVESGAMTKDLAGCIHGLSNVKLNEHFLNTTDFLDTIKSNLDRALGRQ

[1] = system: U87MG pLVX-IDH2 R140Q-neo cells; test: U87MG pLVX-IDH2 R140Q-neo cell based assay, 2-HG in media by LC-MS at 48 hours; conditions: Homo sapiens, U-87 MG
In short: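 U87MG cells stably expressing IDH2 R140Q were seeded overnight, then exposed to compound at 0.2% final DMSO at 37 °C, 5% CO2. 2-HG in the medium was quantified by LC-MS at 48 h. Growth inhibition was read by CellTiter-Glo luminescence at 72 h.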

IDH2 R172K = molecular target: T2, IDH2 R172K (Homo sapiens, UniProt P48735, R172K); test: IDH2 R172K enzymatic assay (NADPH cofactor depletion, diaphorase/resazurin readout); assay type: biochemical; conditions: read-out: Enz R172K
T2 sequence (P48735 40-452 R172K): T1 sequence (P48735 40-452 R140Q) with Q101R, R133K
In short: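 Compound was preincubated with IDH2 R172K for 1 h at room temperature, then the reaction was started with substrate mix containing 50 μM NADPH and 6.3 mM α-KG. After another 1 h at room temperature, stop mix with diaphorase and resazurin consumed the remaining NADPH, and resorufin fluorescence was read.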

Row | SMILES | pIC50 (IDH2 R140Q) | pIC50 [1] | pIC50 (IDH2 R172K)
1 | CC(C)(C)Nc1nc(Nc2cc(F)cc(F)c2)nc(-c2cccc(C(F)(F)F)n2)n1 [Compound 601, N2-(tert-butyl)-N4-(3,5-difluorophenyl)-6-(6-(trifluoromethyl)pyridin-2-yl)-1,3,5-triazine-2,4-diamine] | 6.00 to 7.00 | > 7.00 | > 7.00
2 | CC(C)(C)Nc1nc(Nc2ccnc(C(F)(F)F)c2)nc(-c2cccc(C(F)(F)F)n2)n1 [Compound 602, N2-(tert-butyl)-6-(6-(trifluoromethyl)pyridin-2-yl)-N4-(2-(trifluoromethyl)pyridin-4-yl)-1,3,5-triazine-2,4-diamine] | 6.00 to 7.00 | > 7.00 | > 7.00
3 | CC(C)Nc1nc(Nc2cc(F)cc(F)c2)nc(-c2cccc(C(F)(F)F)n2)n1 [Compound 603, N2-(3,5-difluorophenyl)-N4-isopropyl-6-(6-(trifluoromethyl)pyridin-2-yl)-1,3,5-triazine-2,4-diamine] | 6.00 to 7.00 | > 7.00 | > 7.00
4 | CC(F)(F)c1cc(Nc2nc(NCC3CC3)nc(-c3cccc(C(F)(F)F)n3)n2)ccn1 [Compound 604, N2-(cyclopropylmethyl)-N4-(2-(1,1-difluoroethyl)pyridin-4-yl)-6-(6-(trifluoromethyl)pyridin-2-yl)-1,3,5-triazine-2,4-diamine] | 6.00 to 7.00 | > 7.00 | > 7.00
5 | CC(C)(O)CNc1nc(Nc2ccnc(C(C)(F)F)c2)nc(-c2cccc(C(C)(F)F)n2)n1 [Compound 605, 1-((4-(6-(1,1-difluoroethyl)pyridin-2-yl)-6-((2-(1,1-difluoroethyl)pyridin-4-yl)amino)-1,3,5-triazin-2-yl)amino)-2-methylpropan-2-ol] | 6.00 to 7.00 | > 7.00 | 6.00 to 7.00
6 | CC(C)(C)Nc1nc(Nc2ccnc(C3(C#N)CC3)c2)nc(-c2cccc(C(C)(F)F)n2)n1 [Compound 606, 1-(4-((4-(tert-butylamino)-6-(6-(1,1-difluoroethyl)pyridin-2-yl)-1,3,5-triazin-2-yl)amino)pyridin-2-yl)cyclopropanecarbonitrile] | 6.00 to 7.00 | > 7.00 | > 7.00
7 | CS(=O)(=O)c1cccc(Nc2nc(NCC3CC3)nc(-c3cccc(C(F)(F)F)n3)n2)c1 [Compound 607, N2-(cyclopropylmethyl)-N4-(3-(methylsulfonyl)phenyl)-6-(6-(trifluoromethyl)pyridin-2-yl)-1,3,5-triazine-2,4-diamine] | 6.00 to 7.00 | > 7.00 | 6.00 to 7.00
8 | CC(C)(C)Nc1nc(Nc2ccnc(C3(C#N)CC3)c2)nc(-c2cccc(C(F)(F)F)n2)n1 [Compound 608, 1-(4-((4-(tert-butylamino)-6-(6-(trifluoromethyl)pyridin-2-yl)-1,3,5-triazin-2-yl)amino)pyridin-2-yl)cyclopropanecarbonitrile] | 6.00 to 7.00 | > 7.00 | > 7.00
9 | CC(F)(F)c1cccc(-c2nc(NCC3CC3)nc(Nc3cc(Cl)cc(S(C)(=O)=O)c3)n2)n1 [Compound 609, N2-(3-chloro-5-(methylsulfonyl)phenyl)-N4-(cyclopropylmethyl)-6-(6-(1,1-difluoroethyl)pyridin-2-yl)-1,3,5-triazine-2,4-diamine] | 6.00 to 7.00 | > 7.00 | > 7.00
10 | CC(F)(F)c1cc(Nc2nc(NCC3CC3)nc(-c3cccc(C(C)(F)F)n3)n2)ccn1 [Compound 610, N2-(cyclopropylmethyl)-6-(6-(1,1-difluoroethyl)pyridin-2-yl)-N4-(2-(1,1-difluoroethyl)pyridin-4-yl)-1,3,5-triazine-2,4-diamine] | 6.00 to 7.00 | > 7.00 | > 7.00
11 | CC(F)(F)c1cccc(-c2nc(NCC3CC3)nc(Nc3cccc(S(C)(=O)=O)c3)n2)n1 [Compound 611, N2-(cyclopropylmethyl)-6-(6-(1,1-difluoroethyl)pyridin-2-yl)-N4-(3-(methylsulfonyl)phenyl)-1,3,5-triazine-2,4-diamine] | 6.00 to 7.00 | > 7.00 | 6.00 to 7.00
